The test relates to MV-4-11 cells. The experiment in a line: Gene expression microarray analysis (Affymetrix PrimeView) and GSEA. Format: cell-based, human. Also noted: RFU PODN (11730768_x_at) / Fold change /veh PODN (11730768_x_at) / RFU LINC00158 (11744669_a_at) / Fold change /veh LINC00158 (11744669_a_at) / RFU DUSP10 (11751237_a_at) / Fold change /veh DUSP10 (11751237_a_at) / RFU ID3 (11757404_x_at) / Fold change /veh ID3 (11757404_x_at) / RFU PLEKHG5 (11737974_s_at) / Fold change /veh PLEKHG5 (11737974_s_at) / RFU LRRC4B (11730491_at) / Fold change /veh LRRC4B (11730491_at) / RFU GIMAP4 (11747438_a_at) / Fold change /veh GIMAP4 (11747438_a_at) / RFU KRT8 (11758183_x_at) / Fold change /veh KRT8 (11758183_x_at) / RFU CNN1 (11734310_a_at) / Fold change /veh CNN1 (11734310_a_at) / RFU VPS37D (11726825_at) / Fold change /veh VPS37D (11726825_at) / RFU C10orf10 (11716522_x_at) / Fold change /veh C10orf10 (11716522_x_at) / RFU KIR2DL2 /// KIR2DL4 /// KIR2DL5A /// KIR2DL5B /// KIR2DS1 /// KIR2DS2 /// KIR2DS3 /// KIR2DS4 /// KIR3DL3 /// KIR3DL3 /// KIR3DS1 (11738374_at) / Fold change /veh KIR2DL2 /// KIR2DL4 /// KIR2DL5A /// KIR2DL5B /// KIR2DS1 /// KIR2DS2 /// KIR2DS3 /// KIR2DS4 /// KIR3DL3 /// KIR3DL3 /// KIR3DS1 (11738374_at) / RFU C1QL1 (11718748_at) / Fold change /veh C1QL1 (11718748_at) / RFU TMPRSS4 (11747572_a_at) / Fold change /veh TMPRSS4 (11747572_a_at) / RFU HAMP (11756126_x_at) / Fold change /veh HAMP (11756126_x_at) / RFU RNFT2 (11725882_a_at) / Fold change /veh RNFT2 (11725882_a_at) / RFU NR4A2 (11747474_a_at) / Fold change /veh NR4A2 (11747474_a_at) / RFU ABCC12 (11746883_a_at) / Fold change /veh ABCC12 (11746883_a_at) / RFU TMEM136 (11760407_x_at) / Fold change /veh TMEM136 (11760407_x_at) / RFU CLDN22 /// WWC2 (11732394_at) / Fold change /veh CLDN22 /// WWC2 (11732394_at) / RFU HLA-DPB1 (11760878_x_at) / Fold change /veh HLA-DPB1 (11760878_x_at) / RFU SPINT1 (11716480_a_at) / Fold change /veh SPINT1 (11716480_a_at) / RFU GAP43 (11754022_s_at) / Fold change /veh GAP43 (11754022_s_at) / RFU A4GNT (11735810_at) / Fold change /veh A4GNT (11735810_at) / RFU PRB3 (11715151_x_at) / Fold change /veh PRB3 (11715151_x_at) / RFU TUBB4B (11761932_at) / Fold change /veh TUBB4B (11761932_at) / RFU CAPN14 (11732068_a_at) / Fold change /veh CAPN14 (11732068_a_at) / RFU TMCC2 (11721928_a_at) / Fold change /veh TMCC2 (11721928_a_at) / RFU IRGQ (11745062_a_at) / Fold change /veh IRGQ (11745062_a_at) / RFU FAM174B (11720279_a_at) / Fold change /veh FAM174B (11720279_a_at) / RFU TMPRSS4 (11748680_a_at) / Fold change /veh TMPRSS4 (11748680_a_at) / RFU FAM212B (11763350_a_at) / Fold change /veh FAM212B (11763350_a_at) / RFU PLEKHG5 (11743358_a_at) / Fold change /veh PLEKHG5 (11743358_a_at) / RFU ZSCAN30 (11745921_a_at) / Fold change /veh ZSCAN30 (11745921_a_at) / RFU CMKLR1 (11741424_a_at) / Fold change /veh CMKLR1 (11741424_a_at) / RFU LOC101060620 /// MAPK8IP1 (11723275_at) / Fold change /veh LOC101060620 /// MAPK8IP1 (11723275_at) / RFU SPTSSB (11747773_x_at) / Fold change /veh SPTSSB (11747773_x_at) / RFU PRSS12 (11739890_at) / Fold change /veh PRSS12 (11739890_at) / RFU BIN1 (11741810_x_at) / Fold change /veh BIN1 (11741810_x_at) / RFU WNT11 (11732464_a_at) / Fold change /veh WNT11 (11732464_a_at) / RFU C10orf10 (11716521_a_at) / Fold change /veh C10orf10 (11716521_a_at) / RFU C5orf56 (11738089_at) / Fold change /veh C5orf56 (11738089_at) / RFU CYB561 (11721691_x_at) / Fold change /veh CYB561 (11721691_x_at) / RFU ANKRD19P (11752326_a_at) / Fold change /veh ANKRD19P (11752326_a_at) / RFU OR2T12 /// OR2T33 /// OR2T8 (11738714_s_at) / Fold change /veh OR2T12 /// OR2T33 /// OR2T8 (11738714_s_at) / RFU VCAN (11748164_a_at) / Fold change /veh VCAN (11748164_a_at) / RFU JSRP1 (11732532_at) / Fold change /veh JSRP1 (11732532_at) / RFU KRTAP10-11 (11738290_x_at) / Fold change /veh KRTAP10-11 (11738290_x_at) / RFU MYO3A (11730013_a_at) / Fold change /veh MYO3A (11730013_a_at) / RFU EBF3 (11725865_a_at) / Fold change /veh EBF3 (11725865_a_at) / RFU CAMK2N1 (11719241_x_at) / Fold change /veh CAMK2N1 (11719241_x_at) / RFU C5orf56 (11738088_a_at) / Fold change /veh C5orf56 (11738088_a_at) / RFU OLFML3 (11715873_a_at) / Fold change /veh OLFML3 (11715873_a_at) / RFU LOC100653217 /// NTM (11731650_a_at) / Fold change /veh LOC100653217 /// NTM (11731650_a_at) / RFU MAPK11 (11762145_a_at) / Fold change /veh MAPK11 (11762145_a_at) / RFU FIZ1 (11724087_x_at) / Fold change /veh FIZ1 (11724087_x_at) / RFU OASL (11726364_x_at) / Fold change /veh OASL (11726364_x_at) / RFU SOX15 (11748057_x_at) / Fold change /veh SOX15 (11748057_x_at) / RFU CD79A (11719716_a_at) / Fold change /veh CD79A (11719716_a_at) / RFU HIST1H1D (11736915_at) / Fold change /veh HIST1H1D (11736915_at) / RFU CASKIN2 (11723855_a_at) / Fold change /veh CASKIN2 (11723855_a_at) / RFU LOC730098 (11760151_x_at) / Fold change /veh LOC730098 (11760151_x_at) / RFU OR4N2 (11742367_at) / Fold change /veh OR4N2 (11742367_at) / RFU PRRT2 (11749266_a_at) / Fold change /veh PRRT2 (11749266_a_at) / RFU SNX32 (11753110_a_at) / Fold change /veh SNX32 (11753110_a_at) / RFU CDHR5 (11726645_a_at) / Fold change /veh CDHR5 (11726645_a_at) / RFU RCAN1 (11760418_a_at) / Fold change /veh RCAN1 (11760418_a_at) / RFU FAM167A (11723789_a_at) / Fold change /veh FAM167A (11723789_a_at) / RFU FAM26E (11764081_at) / Fold change /veh FAM26E (11764081_at) / RFU ISYNA1 (11749810_s_at) / Fold change /veh ISYNA1 (11749810_s_at) / RFU ACY1 (11761880_at) / Fold change /veh ACY1 (11761880_at) / RFU 11764098_at / Fold change /veh 11764098_at / RFU SAMD14 (11745864_x_at) / Fold change /veh SAMD14 (11745864_x_at) / RFU NPB (11741838_a_at) / Fold change /veh NPB (11741838_a_at) / RFU TMPRSS6 (11731388_a_at) / Fold change /veh TMPRSS6 (11731388_a_at) / RFU KRTAP10-2 (11738614_at) / Fold change /veh KRTAP10-2 (11738614_at) / RFU ARHGAP8 /// PRR5-ARHGAP8 (11727945_x_at) / Fold change /veh ARHGAP8 /// PRR5-ARHGAP8 (11727945_x_at) / RFU KRTAP5-7 /// NADSYN1 (11734609_at) / Fold change /veh KRTAP5-7 /// NADSYN1 (11734609_at) / RFU RASL12 (11751679_a_at) / Fold change /veh RASL12 (11751679_a_at) / RFU CDKN2B (11736163_a_at) / Fold change /veh CDKN2B (11736163_a_at) / RFU PRF1 (11729649_at) / Fold change /veh PRF1 (11729649_at) / RFU, ZNF638 /// ZNF638-IT1 / Fold change vs veh, ZNF638 /// ZNF638-IT1 / RFU, PANK3 / Fold change vs veh, PANK3 / RFU, SH3YL1 / Fold change vs veh, SH3YL1 / RFU, ZEB2 / Fold change vs veh, ZEB2 / RFU, NRIP1 / Fold change vs veh, NRIP1 / RFU, PTTG1IP / Fold change vs veh, PTTG1IP / RFU, CAPN2 / Fold change vs veh, CAPN2 / RFU, MED14 / Fold change vs veh, MED14 / RFU, SNORA58 / Fold change vs veh, SNORA58 / RFU, C1orf63 / Fold change vs veh, C1orf63 / RFU, LRRFIP1 / Fold change vs veh, LRRFIP1 / RFU, NDUFAF7 / Fold change vs veh, NDUFAF7 / RFU, SLC12A2 / Fold change vs veh, SLC12A2 / RFU, IBTK / Fold change vs veh, IBTK / RFU, ESF1 / Fold change vs veh, ESF1 / Fold change vs veh, TMEM50B / RFU, TAOK1 / Fold change vs veh, TAOK1 / RFU, ACBD3 / Fold change vs veh, ACBD3 / RFU, TMA16 / Fold change vs veh, TMA16 / RFU, RWDD3 / Fold change vs veh, RWDD3 / RFU, BCAT1 / Fold change vs veh, BCAT1 / RFU, EDEM3 / Fold change vs veh, EDEM3 / RFU, TMEM33 / Fold change vs veh, TMEM33 / RFU, WDR75 / Fold change vs veh, WDR75 / RFU, AHCTF1 / Fold change vs veh, AHCTF1 / RFU, TFRC / Fold change vs veh, TFRC / RFU, ZDHHC17 / Fold change vs veh, ZDHHC17 / RFU, NOM1 / Fold change vs veh, NOM1 / RFU, ARL8B / Fold change vs veh, ARL8B / RFU, ZBTB11 / Fold change vs veh, ZBTB11 / RFU, TAMM41 / Fold change vs veh, TAMM41 / RFU, KIAA1704 /// LOC100996395 / Fold change vs veh, KIAA1704 /// LOC100996395 / RFU, ING1 / Fold change vs veh, ING1 / RFU, TRMT61B / Fold change vs veh, TRMT61B / RFU, FUBP3 / Fold change vs veh, FUBP3 / RFU, TP53 / Fold change vs veh, TP53 / RFU, TNKS2 / Fold change vs veh, TNKS2 / RFU, ZFP14 / Fold change vs veh, ZFP14 / RFU, ACTR2 / Fold change vs veh, ACTR2 / RFU, PPP3R1 / Fold change vs veh, PPP3R1 / RFU, PIK3R1 / Fold change vs veh, PIK3R1 / RFU, HNRNPA1 / Fold change vs veh, HNRNPA1 / RFU, RNF170 / Fold change vs veh, RNF170 / RFU, ZNF28 / Fold change vs veh, ZNF28 / RFU, RNGTT / Fold change vs veh, RNGTT / RFU, OGT / Fold change vs veh, OGT / RFU, BRD1 / Fold change vs veh, BRD1 / RFU, MARS / Fold change vs veh, MARS / RFU, ZNF655 / Fold change vs veh, ZNF655 / RFU, FAHD1 / Fold change vs veh, FAHD1 / RFU, BDP1 / Fold change vs veh, BDP1 / RFU, LRRCC1 / Fold change vs veh, LRRCC1 / RFU, ARID1A / Fold change vs veh, ARID1A / RFU, ZNF146 / Fold change vs veh, ZNF146 / RFU, ZNF330 / Fold change vs veh, ZNF330 / RFU, GPN3 / Fold change vs veh, GPN3 / RFU, C9orf123 / Fold change vs veh, C9orf123 / RFU, N4BP2L2 / Fold change vs veh, N4BP2L2 / RFU, ARFIP1 / Fold change vs veh, ARFIP1 / RFU, FAM179B / Fold change vs veh, FAM179B / RFU, BCL10 / Fold change vs veh, BCL10 / RFU, UHRF1BP1L / Fold change vs veh, UHRF1BP1L / RFU, BET1 / Fold change vs veh, BET1 / RFU, CNOT2 / Fold change vs veh, CNOT2 / RFU, ZNF268 / Fold change vs veh, ZNF268 / Fold change vs veh, ZNF507 / RFU, DGCR2 / Fold change vs veh, DGCR2 / RFU, WDSUB1 / Fold change vs veh, WDSUB1 / Fold change vs veh, HSP90B1 /// MIR3652 / RFU, ADSS / Fold change vs veh, ADSS / RFU, GK / Fold change vs veh, GK / RFU, ZNF148 / Fold change vs veh, ZNF148 / RFU, TAF9 / Fold change vs veh, TAF9 / RFU, SLC1A5 / Fold change vs veh, SLC1A5 / RFU, SLMO2 / Fold change vs veh, SLMO2 / RFU, ABCC4 / Fold change vs veh, ABCC4 / RFU, LOC101060439 /// RAP1B / Fold change vs veh, LOC101060439 /// RAP1B / RFU, RFX7 / Fold change vs veh, RFX7 / RFU, GTPBP10 / Fold change vs veh, GTPBP10 / RFU, CNEP1R1 / Fold change vs veh, CNEP1R1 / RFU, BIVM-ERCC5 /// ERCC5 / Fold change vs veh, BIVM-ERCC5 /// ERCC5 / RFU, ILF3 / Fold change vs veh, ILF3 / RFU 11762660_at / Fold change /veh 11762660_at / RFU VCAN (11757783_s_at) / Fold change /veh VCAN (11757783_s_at) / RFU DDX43 (11728927_at) / Fold change /veh DDX43 (11728927_at) / RFU KRT8 (11758188_x_at) / Fold change /veh KRT8 (11758188_x_at) / RFU NKD1 (11759106_at) / Fold change /veh NKD1 (11759106_at) / RFU SRD5A1 (11742802_a_at) / Fold change /veh SRD5A1 (11742802_a_at) / RFU TPSAB1 /// TPSB2 (11721975_s_at) / Fold change /veh TPSAB1 /// TPSB2 (11721975_s_at) / RFU GSTM3 (11746129_a_at) / Fold change /veh GSTM3 (11746129_a_at) / RFU IL23R (11737362_x_at) / Fold change /veh IL23R (11737362_x_at) / RFU TMEM51 (11727254_a_at) / Fold change /veh TMEM51 (11727254_a_at) / RFU PIWIL2 (11732686_x_at) / Fold change /veh PIWIL2 (11732686_x_at) / RFU ORM1 (11744905_x_at) / Fold change /veh ORM1 (11744905_x_at) / RFU CCDC152 (11743942_at) / Fold change /veh CCDC152 (11743942_at) / RFU ECM1 (11717891_a_at) / Fold change /veh ECM1 (11717891_a_at) / RFU IL23R (11748794_a_at) / Fold change /veh IL23R (11748794_a_at) / RFU TNFAIP8L3 (11732012_x_at) / Fold change /veh TNFAIP8L3 (11732012_x_at) / RFU MBOAT4 (11741988_at) / Fold change /veh MBOAT4 (11741988_at) / RFU 11764193_at / Fold change /veh 11764193_at / RFU TMEM53 (11763286_at) / Fold change /veh TMEM53 (11763286_at) / RFU MAGEB2 (11727129_at) / Fold change /veh MAGEB2 (11727129_at) / RFU TMEM200A (11744735_a_at) / Fold change /veh TMEM200A (11744735_a_at) / RFU CCDC152 (11751479_a_at) / Fold change /veh CCDC152 (11751479_a_at) / RFU FAM211A (11726209_a_at) / Fold change /veh FAM211A (11726209_a_at) / RFU RGS16 (11746705_a_at) / Fold change /veh RGS16 (11746705_a_at) / RFU VCAN (11755009_s_at) / Fold change /veh VCAN (11755009_s_at) / RFU RHOB (11743442_s_at) / Fold change /veh RHOB (11743442_s_at) / RFU RGS16 (11720943_a_at) / Fold change /veh RGS16 (11720943_a_at) / RFU RGS16 (11720944_at) / Fold change /veh RGS16 (11720944_at) / RFU, VPS4B / Fold change vs veh, VPS4B / RFU, CREB1 / Fold change vs veh, CREB1 / RFU, DNAJC13 / Fold change vs veh, DNAJC13 / RFU, GNAQ / Fold change vs veh, GNAQ / RFU, CDK5R1 / Fold change vs veh, CDK5R1 / RFU, ZRANB3 / Fold change vs veh, ZRANB3 / RFU, CUL4A / Fold change vs veh, CUL4A / RFU, CCNY / Fold change vs veh, CCNY / RFU, UFL1 / Fold change vs veh, UFL1 / RFU, COG3 / Fold change vs veh, COG3 / RFU, DIAPH2 / Fold change vs veh, DIAPH2 / RFU, SKA2 / Fold change vs veh, SKA2 / RFU, AFF3 / Fold change vs veh, AFF3 / RFU, LMF1 / Fold change vs veh, LMF1 / RFU, IPO11 / Fold change vs veh, IPO11 / RFU, DFFB / Fold change vs veh, DFFB / RFU, FOXP1 / Fold change vs veh, FOXP1 / RFU, CARD8 / Fold change vs veh, CARD8 / RFU, STRN3 / Fold change vs veh, STRN3 / RFU, ADK / Fold change vs veh, ADK / RFU, RASSF2 / Fold change vs veh, RASSF2 / RFU, WIPF1 / Fold change vs veh, WIPF1 / RFU, LARP1B / Fold change vs veh, LARP1B / RFU, RASA1 / Fold change vs veh, RASA1 / RFU, RB1 / Fold change vs veh, RB1 / RFU, PPFIA1 / Fold change vs veh, PPFIA1 / RFU, MAT2A / Fold change vs veh, MAT2A / RFU, CCT5 / Fold change vs veh, CCT5 / RFU, WDR92 / Fold change vs veh, WDR92 / RFU, CUX1 / Fold change vs veh, CUX1 / RFU, TTC7A / Fold change vs veh, TTC7A / RFU, TMEM135 / Fold change vs veh, TMEM135 / RFU, DEPTOR / Fold change vs veh, DEPTOR / RFU, CPM / Fold change vs veh, CPM / RFU, DNAJB6 / Fold change vs veh, DNAJB6 / RFU, CACNA2D3 / Fold change vs veh, CACNA2D3 / RFU, DTX4 / Fold change vs veh, DTX4 / RFU, TFCP2 / Fold change vs veh, TFCP2 / RFU, GMCL1 /// GMCL1P1 / Fold change vs veh, GMCL1 /// GMCL1P1 / RFU, AEBP2 / Fold change vs veh, AEBP2 / RFU, SNHG1 /// SNORD22 /// SNORD25 /// SNORD26 /// SNORD27 /// SNORD28 /// SNORD29 /// SNORD31 / Fold change vs veh, SNHG1 /// SNORD22 /// SNORD25 /// SNORD26 /// SNORD27 /// SNORD28 /// SNORD29 /// SNORD31 / Fold change (Aza/veh), C12orf56 (ProbeSet 11735607_a_at) / Fold change (ACY-1035/veh), C12orf56 (ProbeSet 11735607_a_at) / Fold change (Aza/veh), FGFR1OP (ProbeSet 11751329_s_at) / Fold change (ACY-1035/veh), FGFR1OP (ProbeSet 11751329_s_at) / Fold change (Aza/veh), VPS36 (ProbeSet 11739960_a_at) / Fold change (ACY-1035/veh), VPS36 (ProbeSet 11739960_a_at) / RFU SYPL1 (11715823_x_at) / Fold change /veh SYPL1 (11715823_x_at) / RFU IGFBP7 (11715501_s_at) / Fold change /veh IGFBP7 (11715501_s_at) / RFU REEP3 (11722064_at) / Fold change /veh REEP3 (11722064_at) / RFU IGLL1 (11728026_x_at) / Fold change /veh IGLL1 (11728026_x_at): dose or concentration left out as unconfirmed. The following applies: ProbeSet 11759094_a_at; LIST D.

As to `Nc1ncn([C@@H]2O[C@H](CO)[C@@H](O)[C@H]2O)c(=O)n1` [azacitidine], the “Fold change vs veh, GNAQ” value stood at 0.76.

The record behind these values is paper PMC5218480 (PLoS ONE, 2017).
